Activity calls are given as the source filed them.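 The calls were made as follows: active = target enzyme band signal cut by at least 80% with no off-target protein band also blocked; inactive = weaker inhibition or any off-target band blocked.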

Test [1] addresses Glutathione S-transferase omega-1 (Homo sapiens) (UniProt P78417). Briefly: selectivity of GSTO1 blockers across lysate enzymes – cell lysate, MDA-MB-435 proteome, gel ABPP, endogenous enzyme, selectivity assay for GSTO1 inhibitor project, late-stage follow-up (AID 463102). Particulars: competitive gel ABPP, SE-Rh probe, stronger effect = higher value.
Assay in test [2]: as above
The conditions noted are these: competitive gel ABPP, SE-Rh probe, measured here: total off-target bands hit, stronger effect = lower value.

Sequence of Glutathione S-transferase omega-1 (Homo sapiens) (P78417 whole entry, looked up): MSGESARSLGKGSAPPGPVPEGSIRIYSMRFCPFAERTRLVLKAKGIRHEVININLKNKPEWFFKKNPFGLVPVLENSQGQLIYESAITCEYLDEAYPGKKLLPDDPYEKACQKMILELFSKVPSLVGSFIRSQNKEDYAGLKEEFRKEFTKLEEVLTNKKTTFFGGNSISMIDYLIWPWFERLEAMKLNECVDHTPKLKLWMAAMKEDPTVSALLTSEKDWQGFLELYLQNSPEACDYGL

Regarding `O=S(=O)(c1ccc(Cl)cc1)N1CCC2(CC1)CO2`, the inhibition (in general, how much of the control response was suppressed) in test [1] (GSTO1 inhibition, at 1 µM) was 88%; in test [1] (at 0.1 µM) it was 19% (inactive). In test [2], this compound registered an anti-target hits of 0.

Consider `C#CCNC(=O)C(c1ccc(OC)cc1)N(C(=O)CCl)c1ccc(Cl)cc1` (stereo not drawn), for which the inhibition in test [1] (GSTO1 inhibition, at 1 µM) is 100%; in test [1] (at 0.1 µM), 64% (inactive). The compound also gave an anti-target hits in test [2] of 0.

Consider `Cc1cccc(CN2CCN(C(=O)CCl)CC2)c1`, for which the inhibition in test [1] (GSTO1 inhibition, at 1 µM) is 89%; in test [1] (at 0.1 µM), 26% (inactive). The compound further yielded an anti-target hits in test [2] of 2.

For `Cc1ccc(N(CCCNC(=O)C(F)(F)F)C(=O)CCl)cc1`, the inhibition in test [1] (GSTO1 inhibition, at 1 µM) was 55%; in test [1] (at 0.1 µM), 10% (inactive). Besides, the anti-target hits in test [2] is 0.

Take `C#CCCCCN(C(=O)CCl)c1ccc([N+](=O)[O-])cc1`: the inhibition in test [1] (GSTO1 inhibition, at 1 µM) is 100%; in test [1] (at 0.1 µM) it was 51% (inactive). The same compound yielded an anti-target hits in test [2] of 0.

Take `C#CCCC(=O)NCCCN(C(=O)CCl)c1ccc([N+](=O)[O-])cc1`: the inhibition is 100% in test [1] (GSTO1 inhibition, at 1 µM) and 59% (inactive) in test [1] (at 0.1 µM). The compound further displayed an anti-target hits in test [2] of 0.

Take `O=C(CCl)N1CCN(S(=O)(=O)c2ccc3ccccc3c2)CC1`: the inhibition was 100% in test [1] (GSTO1 inhibition, at 1 µM) and 57% (inactive) in test [1] (at 0.1 µM). Besides, the anti-target hits in test [2] came to 5.

With `CC(=O)NCCCN(C(=O)CCl)c1ccc([N+](=O)[O-])cc1`, the inhibition in test [1] (GSTO1 inhibition, at 1 µM) was 62%; in test [1] (at 0.1 µM), 16% (inactive). Also, the anti-target hits in test [2] was 0.

As to `Cc1ccc2c(c1)c1c3n2CCN(C(=O)CCl)C3CCC1` (stereo not drawn), the inhibition is 93% in test [1] (GSTO1 inhibition, at 1 µM) and 38% (inactive) in test [1] (at 0.1 µM). For the same compound, in test [2], the anti-target hits amounted to 6.

Consider `O=C(NC1CCCCC1)C(c1cccnc1)N(C(=O)CCl)c1ccc(F)cc1` (stereo not drawn), for which the inhibition in test [1] (GSTO1 inhibition, at 1 µM) is 100%; in test [1] (at 0.1 µM), 71% (inactive). For the same compound, the anti-target hits in test [2] was 2.

In the case of `COc1ccc(N(CCCNC(=O)C(F)(F)F)C(=O)CCl)cc1`, the inhibition in test [1] (GSTO1 inhibition, at 1 µM) was 90%; in test [1] (at 0.1 µM) it was 27% (inactive). This compound displayed an anti-target hits in test [2] of 0.

Regarding `O=C(NC1CCCCC1)C(c1cccnc1)N(C(=O)CCl)c1cccc(C(F)(F)F)c1` (stereo not drawn), the inhibition in test [1] (GSTO1 inhibition, at 1 µM) was 92%; in test [1] (at 0.1 µM), 28% (inactive). In addition, the anti-target hits in test [2] worked out at 2.

For `O=C(CCl)N(CCCCNC(=O)C(F)(F)F)c1ccc([N+](=O)[O-])cc1`, the inhibition in test [1] (GSTO1 inhibition, at 1 µM) is 100%; in test [1] (at 0.1 µM) it was 99%. In test [2], the anti-target hits came out at 0.

As for `Cc1nn(-c2ccccc2)c(Cl)c1CN(C(=O)CCl)c1ccc(Cl)cc1`, the inhibition in test [1] (GSTO1 inhibition, at 1 µM) was 93%; in test [1] (at 0.1 µM), 28% (inactive). Also, the anti-target hits in test [2] was found to be 3.

For the compound `O=C(NC1CCCCC1)C(c1cccnc1)N(C(=O)CCl)c1ccc(Cl)c(Cl)c1` (stereo not drawn), the inhibition was 100% in test [1] (GSTO1 inhibition, at 1 µM) and 93% (inactive) in test [1] (at 0.1 µM). The compound further displayed an anti-target hits in test [2] of 2.

Turning to `O=C(NC1CCCCC1)C(c1cccnc1)N(C(=O)CCl)c1ccc(C(F)(F)F)cc1` (stereo not drawn), the inhibition in test [1] (GSTO1 inhibition, at 1 µM) was 55%; in test [1] (at 0.1 µM), 0% (inactive). This compound also registered an anti-target hits in test [2] of 1.

`C#CCCCCNC(=O)C(c1ccc(OC)cc1)N(C(=O)CCl)c1cccc(Cl)c1` (stereo not drawn): the inhibition in test [1] (GSTO1 inhibition, at 1 µM) was 100%; in test [1] (at 0.1 µM), 83% (inactive). In addition, in test [2], the anti-target hits worked out at 1.

With `COc1ccc(C(CCN(Cc2ccc(OC)c(OC)c2)C(=O)CCl)c2ccccc2)cc1` (stereo not drawn), the inhibition in test [1] (GSTO1 inhibition, at 1 µM) is 100%; in test [1] (at 0.1 µM), 81% (inactive). In test [2], this compound had an anti-target hits of 9.

As for `COc1ccc(N(C(=O)CCl)C(C(=O)NC2CCCCC2)c2cccnc2)cc1` (stereo not drawn), the inhibition was 100% in test [1] (GSTO1 inhibition, at 1 µM) and 45% (inactive) in test [1] (at 0.1 µM). This compound came in with an anti-target hits in test [2] of 1.

Take `O=C(NC1CCCCC1)C(c1cccnc1)N(C(=O)CCl)c1cccc(Cl)c1` (stereo not drawn): the inhibition was 100% in test [1] (GSTO1 inhibition, at 1 µM) and 100% (inactive) in test [1] (at 0.1 µM). Further, the anti-target hits in test [2] was 2.

Take `O=C(NC1CCCCC1)C(c1cccnc1)N(C(=O)CCl)c1ccc(Cl)cc1` (stereo not drawn): the inhibition is 100% in test [1] (GSTO1 inhibition, at 1 µM) and 79% (inactive) in test [1] (at 0.1 µM). In test [2], this compound came in with an anti-target hits of 2.

Turning to `O=C(NCCCN(C(=O)CCl)c1ccc([N+](=O)[O-])cc1)c1ccc(F)cc1`, the inhibition in test [1] (GSTO1 inhibition, at 1 µM) is 90%; in test [1] (at 0.1 µM) it was 29% (inactive). Moreover, the anti-target hits in test [2] stood at 2.

In the case of `O=c1[nH]c(CCl)nc2cc(-c3ccc(F)cc3)sc12`, the inhibition in test [1] (GSTO1 inhibition, at 1 µM) was 100%; in test [1] (at 0.1 µM), 77% (inactive). Further, the anti-target hits in test [2] came out at 4.

Consider `C#CCCCCNC(=O)C(c1cccnc1)N(C(=O)CCl)c1ccc(F)cc1` (stereo not drawn), for which the inhibition in test [1] (GSTO1 inhibition, at 1 µM) is 100%; in test [1] (at 0.1 µM), 48% (inactive). The same compound showed an anti-target hits in test [2] of 2.

As to `O=C(CCl)N(CCCNC(=O)C(F)(F)F)c1ccc(F)cc1`, the inhibition in test [1] (GSTO1 inhibition, at 1 µM) is 94%; in test [1] (at 0.1 µM), 25% (inactive). The same compound yielded an anti-target hits in test [2] of 0.

Consider `COc1ccc(C(C(=O)NC2CCCCC2)N(C(=O)CCl)c2ccc(Cl)cc2)cc1` (stereo not drawn), for which the inhibition in test [1] (GSTO1 inhibition, at 1 µM) was 100%; in test [1] (at 0.1 µM) it was 87%. In test [2], the anti-target hits stood at 0.

Regarding `O=C(CCl)N(CCCNC(=O)C(F)(F)F)c1cccc(C(F)(F)F)c1`, the inhibition in test [1] (GSTO1 inhibition, at 1 µM) is 100%; in test [1] (at 0.1 µM), 62% (inactive). This compound displayed an anti-target hits in test [2] of 0.

For `COc1ccc(N(C(=O)CCl)C(C(=O)NCCc2ccccc2)c2cccs2)cc1Cl` (stereo not drawn), the inhibition in test [1] (GSTO1 inhibition, at 1 µM) was 100%; in test [1] (at 0.1 µM), 85% (inactive). The compound further gave an anti-target hits in test [2] of 4.

As for `O=C(NCCCN(C(=O)CCl)c1ccc([N+](=O)[O-])cc1)c1ccccc1`, the inhibition in test [1] (GSTO1 inhibition, at 1 µM) was 93%; in test [1] (at 0.1 µM) it was 34% (inactive). In test [2], this compound had an anti-target hits of 2.

Consider `C#CCN(CCCN(C(=O)CCl)c1ccc([N+](=O)[O-])cc1)C(=O)C(F)(F)F`, for which the inhibition in test [1] (GSTO1 inhibition, at 1 µM) is 100%; in test [1] (at 0.1 µM) it was 100%. In addition, the anti-target hits in test [2] was 0.

On to `O=C(CCl)N(CCCNC(=O)C(F)(F)F)c1ccccc1`, for which the inhibition in test [1] (GSTO1 inhibition, at 1 µM) was 73%; in test [1] (at 0.1 µM) it was 16% (inactive). Moreover, the anti-target hits in test [2] came out at 0.

`CCCCCCCCCCN(C(=O)CCl)c1ccc([N+](=O)[O-])cc1`: the inhibition in test [1] (GSTO1 inhibition, at 1 µM) is 100%; in test [1] (at 0.1 µM) it was 67% (inactive). This compound also gave an anti-target hits in test [2] of 6.

In the case of `O=C(CCl)N(CCCCCNC(=O)C(F)(F)F)c1ccc([N+](=O)[O-])cc1`, the inhibition was 100% in test [1] (GSTO1 inhibition, at 1 µM) and 90% (inactive) in test [1] (at 0.1 µM). Also, in test [2], the anti-target hits is 1.

In the case of `O=C(CCl)N(CCCNC(=O)C(F)(F)F)c1ccc(Cl)cc1`, the inhibition in test [1] (GSTO1 inhibition, at 1 µM) is 100%; in test [1] (at 0.1 µM), 85%. The anti-target hits in test [2] came to 0.

As to `C#CCNC(=O)C(c1ccc(OC)cc1)N(C(=O)CCl)c1cccc(Cl)c1` (stereo not drawn), the inhibition was 100% in test [1] (GSTO1 inhibition, at 1 µM) and 69% (inactive) in test [1] (at 0.1 µM). For the same compound, the anti-target hits in test [2] came to 1.

Turning to `COc1ccc(C(C(=O)NC2CCCCC2)N(C(=O)CCl)c2cccc(Cl)c2)cc1` (stereo not drawn), the inhibition is 100% in test [1] (GSTO1 inhibition, at 1 µM) and 98% (inactive) in test [1] (at 0.1 µM). In addition, the anti-target hits in test [2] worked out at 1.

The values are drawn from PubChem BioAssay AID463102 (The Scripps Research Institute Molecular Screening Center, 2010).
